Laboratory results: patent US9303017B2, “2,5-disubstituted-pyridyl nicotinic ligands, and methods of use thereof” (Georgetown University, priority 2011, dated 2016)

Key:
[1] = tested on: alcohol preferring rats (P rats); test: Alcohol intake in alcohol preferring rats; type: in vivo, rat
Procedure: In Vivo Effects on Alcohol Intake in Rats. In our initial behavioral studies in an animal model, effects of compound (S)-15 (Scheme 1, YL-1-127) on alcohol self-administration in alcohol preferring rats (P rats) were assessed. Three doses of (S)-15 were tested: 0.33, 1 and 3 mg/kg (s.c.).
General Procedures for Effect on Alcohol Intake in Rats. Adult male rats obtained from a colony of selectively-bred alcohol preferring rats (P rats) maintained at Indiana University School of Medicine. Rats were housed in cages that were fitted with two 100 mL Richter tubes for the recording of water and alcohol intake. Animals were kept under a constant room temperature of 22±1° C. and 12:12 light-dark cycle (7:00 a.m.-7:00 p.m. dark). Animals were fed 5001 Rodent Chow (Lab Diet, Brentwood, Mo., USA). All procedures were approved by the IACUC at Duke University Medical Center.
After a week of handling and habituation, rats were given free access to water in a graduated Richter tube for 1 day. Next, they were given free access only to a solution of 10% (v/v) alcohol for 3 consecutive days. Thereafter, rats were given free access to water and a solution of alcohol throughout the study. Water and alcohol intake were indexed by graduated Richter drinking tubes.
An acute study was conducted to determine a dose-response for compound (S)-15 (YL-1-127). After the establishment of a stable baseline for alcohol and water intake rats were injected subcutaneously with 0.33, 1 and 3 mg/kg of YL-1-127 or the same volume of the vehicle ([…]). Alcohol and water intake were measured at, 2, 4, 6 and 24 hr after the drug administration. The preference for alcohol solution, [(alcohol volume)/(alcohol+water volume)×100], was calculated for the same time points as alcohol and water intake. All animals (n=18) received all treatments following a crossover design with random assignment. The interval between injections was at least 3 days.
Solution of 10% (v/v) alcohol was prepared twice weekly from a solution of […] mixed with tap water. Solutions of YL-1-127 was prepared weekly in 100 mM HCl solution and isotonic saline and was injected subcutaneously in a volume of 1 mL/kg.
The data were assessed by the analysis of variance with a between subjects factor of strain and a repeated measures factor of YL-1-127 dose. Significance was determined at p

ferrets = test: Emesis studies in ferrets; type: in vivo, ferret (Mustela putorius furo); conditions: 1-30 mg/kg s.c., 1 hr observation
Procedure: Emetic Effects of Compound (S)-15 (YL-1-127) in Ferrets. Effects of (S)-15 in causing nausea and emesis were assessed in a ferret model. For comparison, varenicline was also tested. […] In general, all animals remained alert and active with periods of inactivity that mirrored their baseline behavior within the 1 hr observation period.
In one animal, this behavior was accompanied by oral stereotypy (licking), whereas in two animals it was interspersed by episodes of backward walking. On the average, these behaviors manifested around ˜2.20 min. […] Occasionally, when animals tried to ambulate they would immediately cease their movement after each attempt. This would be followed by a momentary increase in breathing, giving the impression that the animal was in distress.
General Procedures for Emesis Studies in Ferrets. Studies were undertaken in male ferrets (Mustela putorius furo) weighing 0.9-1.5 kg (Marshall Farms, N.Y.). They were housed in controlled conditions of room temperature (22° C.) and light (12:12 h light-dark cycle) with free access to food and water. Prior to each experiment, food was withheld overnight, whereas water was provided ad libitum.
Emetic testing consisted of placing animals individually in a polycarbonate enclosure. Following a 30 min acclimation period, each animal randomly received a subcutaneus injection of varencline or compound (S)-15 (YL-1-127) in the subscapular region. A 60 min observation and video recording followed the drug administration. […] All drugs were dissolved in sterile saline.
Video analysis of the incidence of emesis, stereotypical behaviors (such as licking, mouth-clawing, backward walking, gagging, and burying of the head in cage) and GI side effects (diarrhea) was done off-line. Stereotypical behaviors are thought to be reflective of a subjective sensation of nausea. The emetic index of a drug was calculated as the […] of animals displaying emesis (one or more times in 60 min) divided by the total number of animals tested. An emetic episode was defined as the forceful oral expulsion of liquid or solid upper gastrointestinal contents that is temporally separated from another by at least 30 s.
The Nausea Index for the stereotypical behaviors was derived from the mean±SEM number of nausea behaviors observed among all animals in a given treatment group. Significance was determined at p<0.05.

## CCCCC#Cc1cnc(C)c(OC[C@@H]2CCN2)c1 [(S)-15, (S)-3-(azetidin-2-ylmethoxy)-5-(hex-1-ynyl)-2-methylpyridine]
[1]; 1 mg/kg s.c., 24 h, p<0.05
  alcohol intake: reduced alcohol intake significantly
[1]; 3 mg/kg s.c., 6 h, p<0.05
  alcohol intake: significant effects
[1]; 3 mg/kg s.c., 24 h, p<0.0005
  alcohol intake: significant effects
[1]; 0.33, 1 and 3 mg/kg s.c., compared with control vehicle
  alcohol intake: significantly reduced alcohol intake in a dose dependent manner
ferrets
  emetic episodes or stereotypical behaviors indicative of nausea: did not elicit any emetic episodes or stereotypical behaviors
